In test [1] the test system is MYC mRNA stability in EOL-1 cells. In words: RNA decay assay. Type of test: cell-based. To be noted: 500 nmol/L 3 hours, then 1 μmol/L actinomycin D. Here is the method:
Cells were treated for 3 hours with vehicle DMSO or 500 nmol/L COMPOUND I followed by 1 μmol/L actinomycin D. Aliquots of cells were taken before and then every 10 minutes after actinomycin D addition for RNA extraction and cDNA synthesis as for qRT-PCR analysis. Levels of MYC and 28s rRNA were analyzed using specific primers (Table 8) and MYC RNA expression was normalized to 28 s rRNA [2^(28 s Ct value−MYC Ct value)].
Regulation of MYC expression is a complex process that involves MYC transcription, mRNA stability, and protein turnover. ChIP-qPCR analysis for H3K27ac, a well-established marker of active chromatin, was performed to assess transcriptional competency of the MYC gene promoter after treatment with COMPOUND I (FIG. 19D). […] To determine whether COMPOUND I affected MYC mRNA stability, an RNA decay assay was performed on EOL-1 cells.

Test [2] concerns phospho-ATM, phospho-γH2AX, PARP cleavage in Raji/COMPOUND IR cells. In words: Western blot of phospho-ATM, γH2AX and cleaved PARP. The format is cell-based, human. The conditions noted are these: 0.5 μM, 24 h. Here is the method:
Only when the Raji/COMPOUND IR cells were treated with at least 3 times as much COMPOUND I did the intracellular content of Fe(COMPOUND I)3 finally reach a level similar to that in the sensitive cells (FIG. 4D).
In general terms: In western blotting, separated proteins are transferred to a membrane and probed.

Another test concerns MYC in AML cell lines. In words: MYC mRNA (qRT-PCR) and protein (Western blot) levels. Type of test: cell-based. The conditions noted are these: all AML cell lines tested, 24 hours. Here is the method:
Cells were treated with vehicle or COMPOUND I at various concentrations for 24 hours or at a single concentration for 1, 3, 6, 12, and 24 hours before harvesting. Cells were lysed by QiaShredder columns (QIAGEN, catalog #79656), total RNA was isolated using QIAGEN RNeasy Plus Mini Kit (catalog #74134), and cDNA was synthesized utilizing Transcriptor Universal cDNA master mix (Roche, catalog #05893151001) and then used for qRT-PCR analysis using FastStart essential DNA probes master mix (Roche, catalog #06402682001) and Roche LightCycler96. Primer probe pairs were purchased from IDT (Table 5). Expression was calculated as fold change over vehicle treated samples after normalizing to GAPDH […].
Cells were treated as described above. Whole-cell lysates were prepared, separated by SDS-PAGE, and transferred to nitrocellulose membranes. Densitometry was performed using ImageJ or Image Studio Lite Version5.2 software and normalized to the density of GAPDH.
MYC expression is implicated in the pathogenesis of a wide range of cancers, including leukemia and lymphoma. […] It was also observed that an increased transcription of genes negatively regulated by MYC in COMPOUND I-treated MV4-11 cells. […] The time course of MYC protein repression in MV4-11 cells paralleled inhibition of MYC gene expression levels detected by RNA-seq. […]
A general note: Real-time PCR tracks product formation cycle by cycle.

Test [3] has as its system PEO4 and PEO1 ovarian cancer cell lines. In words: Sensitivity of BRCA2-proficient and -deficient cells. Type of test: cell-based. The conditions noted are these: FIG. 3D. Here is the method:
Cells were plated and treated with the indicated drugs in 96-well plates for 5 days. Cell viability was measured using CellTiter 96 AQueous one solution (MTS) cell proliferation assay purchased from Promega, and IC50 values were calculated using GraphPad Prism 6 Software.
The finding that COMPOUND I produced DNA damage led to the investigation of whether cells deficient in homologous recombination were hypersensitive to this drug. The hypothesis that there would be synthetic lethality between COMPOUND I and BRCA1 deficiency using isogenic pairs of BRCA1-proficient and -deficient human cell lines was tested. […] The conclusion that BRCA1-deficient cells are hypersensitive to COMPOUND I was further supported by the results obtained in MCF7 E7 cells in which BRCA1 expression is stably knocked down by the expression of an shRNAi. […] Whether BRCA2-deficient cells are more sensitive to COMPOUND I was tested using the BRCA2-proficient and BRCA2-deficient ovarian cancer cell lines, PEO4 and PEO1, respectively. PEO1 is BRCA2-deficient and sensitive to cisplatin and a poly(ADP-ribose) polymerase inhibitor AG14361. PEO4 was derived from ascites at the time of relapse with cisplatin resistance and contains a secondary mutation that restores BRCA2 function. […] Thus, loss of either BRCA1 or BRCA2 function renders malignant cells hypersensitive to COMPOUND I.

In test [4] the test system is phosphorylated ATM, γH2AX, cleaved PARP in Raji cells. In words: Western blot of phospho-ATM, γH2AX and cleaved PARP. The format is cell-based, human. To be noted: 0.5 μM. Here is the method:
The structure of COMPOUND I is similar to drugs that bind to quadruplex structures in DNA which results in strand breaks; this led to the investigation of whether COMPOUND I caused damage to DNA. The parental Raji cells were treated with 0.5 μM COMPOUND I for increasing periods of time and induction of DNA damage was assessed by accumulation of the phosphorylated forms of ATM and γH2AX measured by Western blot analysis. […] Raji cells have very small nuclei making it difficult to quantify the formation of γH2AX foci, so the human ovarian carcinoma cell line CAOV3 was used for this purpose. […] Evidence of DNA damage was further strengthened by the results of the neutral comet assay which mainly detects DNA double strand breaks (FIG. 2D).

The test system of test [5] is MV4-11, EOL1, or KG-1 cells. In words: Detection of reactive oxygen species (molecular sensors, GSH changes). The format is cell-based. The text has this:
In addition, cells harboring BRCA1/2 mutations are hypersensitive to COMPOUND I, further supporting a role for DNA damage in COMPOUND I mechanism of action. COMPOUND I consistently produced upregulation of CDKN1A, which mediates arrest in G0-G1. In addition, CDKN1A can be induced after DNA double-strand breaks to block cell-cycle progression to allow for sufficient time to repair DNA. In combination with CDKN1A induction, COMPOUND I increased KLF4 gene expression in many AML cell lines, which is known to regulate CDKN1A as part of the G1 cell-cycle checkpoint. […] The role of KLF4 in COMPOUND I mechanism of action is of interest for future studies.

The structures appear in SMILES notation.

As for `Cc1[nH]c2ccc(F)cc2c1-c1nc2c3cccnc3c3ncccc3c2[nH]1` [COMPOUND I, 2-(5-fluoro-2-methyl-1H-indol-3-yl)-1H-imidazo[4,5-f][1,10]phenanthroline], in test [1], the “MYC mRNA levels in pretreated cells versus vehicle” value is listed as “clear decrease in MYC mRNA levels”. Also, the “phospho-ATM, phospho-γH2AX, PARP cleavage” value in test [2] was “no increase in phospho-ATM or phospho-γH2AX, and no detectable PARP cleavage”. In the test with MYC in AML cell lines, the “MYC mRNA and protein levels” value is “concentration-dependent decrease in both MYC mRNA and protein levels”. The “effect of restoration of BRCA2 function (PEO4 vs PEO1)” value in test [3] is “increased resistance”. In addition, in test [4] (time course), the “cleavage of PARP” value is on record as “detected starting at 8 h”. The “phosphorylated ATM and γH2AX accumulation” value in test [4] (up to 24 h) was “clear increase in phosphorylated ATM and γH2AX starting at 6 h”. Also, the “generation of reactive oxygen species” value in test [5] is reported as “no such species have been detected”.

For the origin of these results see US11149047B2, “Aryl imidazoles for treatment of cancer” (Aptose Biosciences Inc., priority 2017, dated 2021).
